molecular target: T1, PDE7 (Homo sapiens, UniProt Q13946); assay: not given; conditions: J. Biol. Chem., 268, 12925 (1993); cited from earlier work
T1 sequence (Q13946 whole entry): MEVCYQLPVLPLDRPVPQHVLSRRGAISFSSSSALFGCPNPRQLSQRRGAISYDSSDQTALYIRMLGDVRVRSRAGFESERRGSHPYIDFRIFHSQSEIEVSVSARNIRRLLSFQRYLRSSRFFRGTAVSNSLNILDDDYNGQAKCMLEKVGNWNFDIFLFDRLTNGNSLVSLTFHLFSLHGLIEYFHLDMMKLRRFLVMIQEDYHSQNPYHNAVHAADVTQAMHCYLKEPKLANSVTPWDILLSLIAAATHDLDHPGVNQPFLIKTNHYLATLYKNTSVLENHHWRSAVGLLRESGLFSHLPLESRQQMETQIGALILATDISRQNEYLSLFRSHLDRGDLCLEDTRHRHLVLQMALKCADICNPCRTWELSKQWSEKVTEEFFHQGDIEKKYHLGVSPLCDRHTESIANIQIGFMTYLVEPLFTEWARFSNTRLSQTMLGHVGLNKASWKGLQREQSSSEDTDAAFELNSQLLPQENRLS

For `COc1ccc(C2CNC(=O)C2)cc1OC1CCCC1` (stereo not shown) [rolipram], which “inhibition of PDE7” value is on record?
The value was “not inhibited”.

molecular target: T2, Human CB2 receptors (Homo sapiens, UniProt P34972); assay: In vitro signaling assay: inhibition of forskolin-induced cAMP production in human CB2 receptor expressing CHO cells; type: cell-based; conditions: 10 μM forskolin, 15 minutes at room temperature
T2 construct: expressed in transfected cells; host or cells: CHO cells
T2 sequence (P34972 whole entry): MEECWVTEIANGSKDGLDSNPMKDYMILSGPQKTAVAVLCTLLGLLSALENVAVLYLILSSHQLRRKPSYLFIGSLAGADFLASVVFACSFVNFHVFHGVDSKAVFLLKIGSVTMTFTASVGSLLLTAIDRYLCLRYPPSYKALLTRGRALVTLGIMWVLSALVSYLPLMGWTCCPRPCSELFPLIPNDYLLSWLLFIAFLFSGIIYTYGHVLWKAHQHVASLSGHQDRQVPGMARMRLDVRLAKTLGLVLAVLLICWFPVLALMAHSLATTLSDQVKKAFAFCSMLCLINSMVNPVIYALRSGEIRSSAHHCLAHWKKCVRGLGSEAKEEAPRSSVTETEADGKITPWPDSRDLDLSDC
Description: Human CB2 receptors expressed CHO cells were used for the assays. Cells were dispersed seeded in 96-well plates in a density of 5×10^4 cells/well, and were subjected to experiment the next day. After removing the culture media 1 mM isobutylmethylxanthine (IBMX) solution was added, and cells were incubated for 10 minutes at room temperature. Next, a mixture of 10 μM forskolin and the compound of the present invention was added. After additional incubation for 15 minutes at room temperature, the culture supernatant was discarded and 200 μl of lysis reagent (attached to a cAMP EIA) was added. The amounts of cAMP of the lysate were determined by a cAMP EIA kit (Amersham) under conditions of the forskolin-induced cAMP production. The compound of the present invention was dissolved in DMSO and the solution was diluted to adjust the final concentration of DMSO to 0.1%. IC50 values were calculated from the inhibitory ratio of the compound of the present invention toward the amount of the forskolin-induced cAMP production. By the same experiment using CHO cells, it was confirmed that this inhibitory effect toward cAMP production by the compound was mediated via the human CB2 receptors.

Which IC50 does the source give for `COc1ccc2c(c1)C(C)(C)N/C2=C\C(=O)c1ccccc1OC` [57(2), (Z)-2-(5-methoxy-3,3-dimethyl-2,3-dihydro-(2H)-isoindol-1-ylidene)-1-(2-methoxyphenyl)ethan-1-one] here?
The IC50 was 3.3 nM.

With `CC1(C)Cc2cc(C#N)c(C#N)cc2/C(=C/C(=O)C2CCOCC2)N1` [46(3), (Z)-2-(6,7-dicyano-3,3-dimethyl-3,4-dihydro-(2H)-isoquinolin-1-ylidene)-1-(tetrahydropyran-4-yl)ethan-1-one] as the compound, how does the IC50 read?
The IC50 was 5.3 nM.

For `Cc1cc2c(cc1O)/C(=C/C(=O)C1CCCCCC1)NC(C)(C)C2` [47(6), (Z)-2-(7-hydroxy-3,3,6-trimethyl-3,4-dihydro-(2H)-isoquinolin-1-ylidene)-1-cycloheptylethan-1-one], which IC50 is on record?
Its IC50 is 4.1 nM.

Which IC50 does the source give for `Cc1cc2c(cc1O)/C(=C/C(=O)C13CC4CC(CC(C4)C1)C3)NC(C)(C)C2` [47(4), (Z)-2-(7-hydroxy-3,3,6-trimethyl-3,4-dihydro-(2H)-isoquinolin-1-ylidene)-1-(adamantan-1-yl)ethan-1-one] here?
Its IC50 is 5.2 nM.

molecular target: T1, PDE7; assay: In vitro enzyme assay: PDE7 inhibitory activity; type: biochemical; design: endogenous in cells; host or cells: HuT78 cells; soluble fraction separated on a MonoQ anion-exchange column; conditions: PDE7 fraction from HuT78 cells, 30 minutes at room temperature
Description: HuT78 cells (derived from human T cell lymphocyte) were cultured in PRMI1640 medium containing 10% bovine fetus serum. 2 L of cells (approximately 8×10^8 cells) were collected, and they were homogenized in a buffer [50 mmol/l tris hydrochloric acid buffer containing 1 mmol/l dithiothreitol (DTT), 2 mmol/l ethylenediamine tetraacetate disodium (EDTA-2Na). After centrifugation (50,000 rpm, 4° C., 1 hour), the supernatant was collected, and filtered over 0.22 μm filter and the filtrate was fractionated by column chromatography on MonoQ (Pharmacia, hard negative ion exchange column) using the filtrate as soluble portion. The PDE activity of the fraction eluted by the concentration gradient of NaCl of 0-0.8 mol/L was measured using 1 μmol/l of cAMP as a substrate. Fractions where PDE activity is not inhibited by 10 μmol/l of rolipram ([…]) are collected. As to the PDE activity of these fractions, substrate-specificity against cAMP and Michaelis-Menten constant were measured and sensitivity to rolipram was confirmed. Then the fractions which show specificity and high affinity to cAMP which are non-sensitive fractions to rolipram were identified as PDE7. The fractions were used as an enzyme liquor for the measurement of PDE inhibitory activity.
PDE7 inhibitory activity of the compound of the present invention of was evaluated by the following method. 70 μl of diluted enzyme solution, 10 μl of the solution of the compound of the present invention (10% in DMSO), 10 μl of reaction buffer solution [50 mmol/l MgCl2, 1 mg/ml bovine serum albumin, 200 mmol/l tris hydrochloric acid buffer (pH 8.0) containing 40 mmol/l 2-mercaptoethanol] in 96 well plate and it was incubated for 30 minutes at room temperature. It was microwaved for 2.5 minutes to terminate the reaction. It was centrifuged (2,000 rpm for 1 minute) and thereto was added 10 μl of 1 mg/ml snake venom (Sigma, cat. V7000) and it was incubated for 30 minutes at room temperature. The […] (50 μl) was applied to alumina column (100 μl). Purified ^3H-adenosine was eluted with 0.005N hydrochloric acid (80 μl) and its radioactivity of the elute was measured.
PDE7 inhibitory activity of the present invention was evaluated by the activity inhibitory percentage calculated from the following equation. Activity inhibitory percentage (%)=(1-radioactivity in the presence of the compound of the present invention/radioactivity in the absence of the compound of the present invention)×100

With `COc1ccccc1C(=O)/C=C1\NC(C)(C)Cc2cc(Cl)ccc21` [12(15), (Z)-2-(6-chloro-3,3-dimethyl-3,4-dihydro-(2H)-isoquinolin-1-ylidene)-1-(2-methoxyphenyl)ethan-1-one] as the compound, how does the IC50 read?
The IC50 was 1100 nM.

Which IC50 does the source give for `COc1ccc2c(c1)/C(=C/C(=O)c1ccc(C#N)cc1)NC(C)(C)C2` [11(35), (Z)-2-(7-methoxy-3,3-dimethyl-3,4-dihydro-(2H)-isoquinolin-1-ylidene)-1-(4-cyanophenyl)ethan-1-one] here?
Its IC50 is 150 nM.

With `COc1ccccc1C(=O)/C=C1\NC(C)(C)Cc2ccc(Cl)cc21` [11(43), (Z)-2-(7-chloro-3,3-dimethyl-3,4-dihydro-(2H)-isoquinolin-1-ylidene)-1-(2-methoxyphenyl)ethan-1-one] as the compound, how does the IC50 read?
Its IC50 is 970 nM.

Which IC50 does the source give for `COc1ccc2c(c1)CC(C)(C)N/C2=C\C(=O)C1CCCCC1` [12(7), (Z)-2-(6-methoxy-3,3-dimethyl-3,4-dihydro-(2H)-isoquinolin-1-ylidene)-1-cyclohexylethan-1-one] here?
The IC50 was 270 nM.

With `COc1ccc2c(c1)/C(=C/C(=O)c1ccc(N)cc1)NC2(C)C` [Example 58, (Z)-2-(6-methoxy-3,3-dimethyl-2,3-dihydro-(2H)-isoindol-1-ylidene)-1-(4-aminophenyl)ethan-1-one] as the compound, how does the IC50 read?
Its IC50 is 23 nM.

Which IC50 does the source give for `COc1ccc2c(c1)/C(=C/C(=O)c1ccc(NC(N)=O)cc1)NC(C)(C)C2` [Example 73, (Z)-2-(7-methoxy-3,3-dimethyl-3,4-dihydro-(2H)-isoquinolin-1-ylidene)-1-(4-((aminocarbonyl)amino)phenyl)ethan-1-one] here?
The IC50 was 27 nM.

Which IC50 does the source give for `CC1(C)Cc2ccc(Cl)cc2/C(=C/C(=O)C23CC4CC(CC(C4)C2)C3)N1` [11(79), (Z)-2-(7-chloro-3,3-dimethyl-3,4-dihydro-(2H)-isoquinolin-1-ylidene)-1-(adamantan-1-yl)ethan-1-one] here?
The IC50 was 760 nM.

For `CNc1ccc2c(c1)/C(=C/C(=O)c1ccc(C#N)cc1)NC(C)(C)C2` [11(162), (Z)-2-(7-methylamino-3,3-dimethyl-3,4-dihydro-(2H)-isoquinolin-1-ylidene)-1-(4-cyanophenyl)ethan-1-one], which IC50 is on record?
The IC50 was 370 nM.
